Assay results taken from ChEMBL document CHEMBL1201862, “PubChem BioAssay data set” (2004).
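Protocol summary: plate cells (96-well), add compound at 5 concentrations, incubate 48 h, interpolate endpoints linearly. GI50: concentration for 50% inhibition of growth.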 Active and inactive are the calls of the source. No stated cut-off is given here; in the data, active = GI50 up to about 1.1 µM and inactive = higher.

Legend:
Experiment in all cases: growth of human tumour cells (NCI), 48 h
LOX IMVI = tested on: LOX IMVI
U-251 = tested on: U-251
T47D = tested on: T47D
MOLT-4 = tested on: MOLT-4
SF-268 = tested on: SF-268
K562 = tested on: K562
HCC 2998 = tested on: HCC 2998
NCI/ADR-RES = tested on: NCI/ADR-RES
DU-145 = tested on: DU-145
SF-539 = tested on: SF-539
UACC-62 = tested on: UACC-62
EKVX = tested on: EKVX
SK-OV-3 = tested on: SK-OV-3
Hs-578T = tested on: Hs-578T
MDA-MB-231 = tested on: MDA-MB-231
IGROV-1 = tested on: IGROV-1
A549 = tested on: A549
ACHN = tested on: ACHN
A498 = tested on: A498
HOP-92 = tested on: HOP-92

Measured: GI50

COc1ccc(/C=C/C(=O)CC(=O)/C=C/c2ccc(OC)cc2)cc1
inactive: LOX IMVI 1.4 µM | U-251 41.3 µM | T47D > 100 µM | MOLT-4 28 µM | SF-268 46.3 µM | K562 32.7 µM | HCC 2998 > 100 µM | NCI/ADR-RES 36.1 µM | DU-145 74.5 µM | SF-539 30.3 µM | UACC-62 54.2 µM | EKVX 54.7 µM | SK-OV-3 > 100 µM | Hs-578T 36.4 µM | MDA-MB-231 51.4 µM | IGROV-1 > 100 µM | A549 80.4 µM

O=C1NC(=S)N/C1=C\c1ccc(Cl)cc1
inactive: LOX IMVI > 100 µM | U-251 > 100 µM | T47D 42.5 µM | MOLT-4 80.2 µM | SF-268 > 100 µM | HCC 2998 > 100 µM | NCI/ADR-RES > 100 µM | DU-145 99.8 µM | SF-539 > 100 µM | UACC-62 46.3 µM | EKVX 33.6 µM | SK-OV-3 > 100 µM | Hs-578T 50.4 µM | MDA-MB-231 > 100 µM | IGROV-1 > 100 µM | A549 93.1 µM

CC(=O)N1CC[N+](C)(CCCCN2c3ccccc3Sc3cc(N=[N+]=[N-])ccc32)CC1
inactive: LOX IMVI > 100 µM | U-251 > 100 µM | T47D > 100 µM | MOLT-4 > 100 µM | SF-268 > 100 µM | K562 49.8 µM | HCC 2998 > 100 µM | NCI/ADR-RES > 100 µM | DU-145 > 100 µM | SF-539 > 100 µM | UACC-62 > 100 µM | ACHN > 100 µM | EKVX > 100 µM | SK-OV-3 > 100 µM | Hs-578T 75.9 µM | MDA-MB-231 > 100 µM | IGROV-1 > 100 µM | A498 > 100 µM | A549 > 100 µM

O=C1C=CC2CCC1C2 (configuration not stated)
inactive: LOX IMVI 29.4 µM | U-251 28.8 µM | T47D 19.9 µM | MOLT-4 26.4 µM | SF-268 20.2 µM | K562 27.4 µM | HCC 2998 30.1 µM | NCI/ADR-RES 22.4 µM | DU-145 34.2 µM | SF-539 34.7 µM | UACC-62 19.2 µM | ACHN 40.3 µM | EKVX > 100 µM | SK-OV-3 24.4 µM | Hs-578T 28.6 µM | MDA-MB-231 28.6 µM | IGROV-1 53.3 µM | A498 90.2 µM | A549 40.6 µM

NNc1nncc2[nH]nnc12
inactive: U-251 > 100 µM | T47D > 100 µM | MOLT-4 > 100 µM | SF-268 > 100 µM | K562 > 100 µM | NCI/ADR-RES > 100 µM | DU-145 > 100 µM | SF-539 > 100 µM | UACC-62 > 100 µM | ACHN > 100 µM | EKVX > 100 µM | Hs-578T > 100 µM | MDA-MB-231 > 100 µM | IGROV-1 > 100 µM | A498 > 100 µM | A549 > 100 µM

CCc1cccc(CC)c1Nc1nc2c(s1)C(=O)c1ccccc1C2=O
inactive: LOX IMVI 18 µM | U-251 15.8 µM | T47D 33.6 µM | MOLT-4 23.2 µM | SF-268 16.9 µM | HOP-92 19.5 µM | K562 28 µM | HCC 2998 18.7 µM | DU-145 21.6 µM | SF-539 24.2 µM | UACC-62 17.2 µM | ACHN 17.6 µM | EKVX 16.3 µM | SK-OV-3 27.3 µM | Hs-578T 22.2 µM | MDA-MB-231 16.5 µM | IGROV-1 12.2 µM | A498 > 10 µM | A549 31.4 µM

C=C(C(=O)OCC)C(=O)OCC
inactive: LOX IMVI > 100 µM | U-251 > 100 µM | T47D > 100 µM | MOLT-4 > 100 µM | SF-268 > 100 µM | HOP-92 > 100 µM | K562 > 100 µM | HCC 2998 > 100 µM | DU-145 > 100 µM | SF-539 > 100 µM | UACC-62 > 100 µM | ACHN > 100 µM | EKVX > 100 µM | SK-OV-3 > 100 µM | Hs-578T > 100 µM | MDA-MB-231 > 100 µM | IGROV-1 > 100 µM | A549 > 100 µM

c1ccc2c(c1)sc1c3cnccc3ccc21
inactive: LOX IMVI 71.6 µM | U-251 > 100 µM | T47D > 100 µM | MOLT-4 19.5 µM | SF-268 > 100 µM | K562 > 100 µM | HCC 2998 > 100 µM | NCI/ADR-RES > 100 µM | DU-145 > 100 µM | SF-539 82.2 µM | UACC-62 80.4 µM | ACHN 90.4 µM | EKVX 6.71 µM | SK-OV-3 > 100 µM | Hs-578T 29 µM | MDA-MB-231 > 100 µM | IGROV-1 25.3 µM | A498 > 100 µM | A549 33.7 µM

CSc1c(C#N)c(O)nc(N)c1C(=O)Nc1ccc(C)cc1
inactive: LOX IMVI > 100 µM | U-251 > 100 µM | T47D > 100 µM | MOLT-4 > 100 µM | SF-268 > 100 µM | K562 > 100 µM | HCC 2998 > 100 µM | NCI/ADR-RES > 100 µM | DU-145 > 100 µM | SF-539 > 100 µM | UACC-62 > 100 µM | EKVX > 100 µM | SK-OV-3 > 100 µM | Hs-578T > 100 µM | MDA-MB-231 > 100 µM | A498 38.9 µM | A549 > 100 µM

CC(C)c1ccc(/C=C2\N=C(c3ccc([N+](=O)[O-])cc3)OC2=O)cc1
inactive: LOX IMVI > 100 µM | U-251 54.2 µM | T47D > 100 µM | MOLT-4 > 100 µM | SF-268 > 100 µM | HOP-92 > 100 µM | K562 > 100 µM | HCC 2998 > 100 µM | DU-145 > 100 µM | SF-539 > 100 µM | UACC-62 > 100 µM | ACHN > 100 µM | EKVX > 100 µM | SK-OV-3 > 100 µM | Hs-578T > 100 µM | MDA-MB-231 > 100 µM | IGROV-1 > 100 µM | A498 > 100 µM | A549 > 100 µM

Cc1cc(=O)[nH]c(-n2[nH]c(C)c(CCO)c2=O)n1
inactive: LOX IMVI > 100 µM | U-251 > 100 µM | T47D > 100 µM | SF-268 > 100 µM | K562 > 100 µM | HCC 2998 > 100 µM | NCI/ADR-RES > 100 µM | DU-145 > 100 µM | SF-539 > 100 µM | UACC-62 > 100 µM | ACHN > 100 µM | EKVX > 100 µM | SK-OV-3 > 100 µM | Hs-578T > 100 µM | MDA-MB-231 > 100 µM | IGROV-1 > 100 µM | A498 > 100 µM | A549 > 100 µM
